The values that follow are results of earlier work, collected in US20040116402A1, “Superoxide dismutase mimics for the treatment of ocular disorders and diseases” (priority 2002, published 2004).

The test system of series [1] is diabetic rats.
In series [2] the test system is albino rats.
Series [3] deals with autoimmune diabetes by a diabetogenic T-cell clone. The conditions noted are these: in a cloned cell (diabetogenic T-cell clone adoptive transfer).

For the compound `[Cl-].[Cl-].[Mn+2].c1cc2nc(c1)CN[C@@H]1CCCC[C@H]1NCCN[C@@H]1CCCC[C@H]1NC2` [M40403], the “vascular and neural dysfunction” value in series [1] was “prevented vascular and neural dysfunction”.

For `CC1(C)CC(O)CC(C)(C)N1[O]` [4-hydroxy-2,2,6,6-tetramethylpiperidine-1-oxyl], the light-induced retinal damage result in series [2] was “inhibited light-induced retinal damage”.

Consider `CCN1C=CC=C/C1=C1/C2=NC(=C(c3cccc[n+]3CC)C3=NC(=C(c4cccc[n+]4CC)c4ccc([n-]4)C(c4cccc[n+]4CC)=C4C=CC1=N4)C=C3)C=C2.[Cl-].[Cl-].[Cl-].[Cl-].[Cl-].[Mn+3]` [AEOL10113], for which the onset of diabetes result in series [3] is listed as “delay the onset of diabetes”.
